The source of these data is patent US10570129B2 (Zoetis Services LLC, priority 2015, dated 2020).

Structures are written as SMILES.

One assay concerns D. immitis microfilariae. Kind of assay: Dirofilaria immitis, microfilariae (DiMF) in vitro motility assay. The class given is cell-based. The note with it: Dirofilaria immitis, 72 h, read-out: DiMF minimally effective dose (MEC).
For the next assay, the system named is Haemonchus contortus L3. Kind of assay: microbe, parasite or virus in culture. Format: cell-based. Conditions: Haemonchus contortus, 96 h, read-out: HcL3 Minimal Effective Concentration (MEC).

Turning to `O=C(NCc1ccnc(F)c1)n1c2c(c3ccc(OC(F)(F)F)cc31)CN(C/C=C/c1ccc(F)cc1Cl)CC2` [Example 373, (E)-2-(3-(2-chloro-4-fluorophenyl)allyl)-N-((2-fluoropyridin-4-yl)methyl)-7-(trifluoromethoxy)-1,2,3,4-tetrahydro-5H-pyrido[4,3-b]indole-5-carboxamide], the minimal effective concentration in the assay on D. immitis microfilariae came to 10 µM; in the assay on Haemonchus contortus L3, 1.8 µM.
As to `O=C(NCc1ccnc(F)c1)n1c2c(c3ccc(OC(F)(F)F)cc31)CN(C/C=C/c1ccc(F)c(Cl)c1)CC2` [Example 375, (E)-2-(3-(3-chloro-4-fluorophenyl)allyl)-N-((2-fluoropyridin-4-yl)methyl)-7-(trifluoromethoxy)-1,2,3,4-tetrahydro-5H-pyrido[4,3-b]indole-5-carboxamide], the results for the minimal effective concentration in the assay with D. immitis microfilariae and in the assay with Haemonchus contortus L3 were 18.2 µM and 1.8 µM, respectively.
Regarding `O=C(NCc1ccnc(F)c1)n1c2c(c3ccc(OC(F)(F)F)cc31)CN(C/C=C/c1ccc(F)c(F)c1)CC2` [Example 376, (E)-2-(3-(3,4-difluorophenyl)allyl)-N-((2-fluoropyridin-4-yl)methyl)-7-(trifluoromethoxy)-1,2,3,4-tetrahydro-5H-pyrido[4,3-b]indole-5-carboxamide], the minimal effective concentration was 10 µM in the assay with D. immitis microfilariae and 0.5 µM with Haemonchus contortus L3.
Taken in the same sequence, the figures for `O=C(NCc1ccnc(F)c1)n1c2c(c3ccc(OC(F)(F)F)cc31)CN(C/C=C/c1cc(F)cc(F)c1)CC2` [Example 378, (E)-2-(3-(3,5-difluorophenyl)allyl)-N-((2-fluoropyridin-4-yl)methyl)-7-(trifluoromethoxy)-1,2,3,4-tetrahydro-5H-pyrido[4,3-b]indole-5-carboxamide] were 10 µM and 1.8 µM.
For the molecule `O=C(NCc1ccnc(F)c1)n1c2c(c3c(OC(F)(F)F)cccc31)CN(C/C=C/c1ccc(Cl)cc1)CC2` [Example 379a, (E)-2-(3-(4-chlorophenyl)allyl)-N-((2-fluoropyridin-4-yl)methyl)-9-(trifluoromethoxy)-1,2,3,4-tetrahydro-5H-pyrido[4,3-b]indole-5-carboxamide], the values for the minimal effective concentration in the assay with D. immitis microfilariae and in the assay with Haemonchus contortus L3 were 3.3 µM and greater than 100 µM, respectively.
`O=C(NCc1ccnc(F)c1)n1c2c(c3ccc(OC(F)(F)F)cc31)CN(C/C=C/c1cc(F)cc(Cl)c1)CC2` [Example 380, (E)-2-(3-(3-chloro-5-fluorophenyl)allyl)-N-((2-fluoropyridin-4-yl)methyl)-7-(trifluoromethoxy)-1,2,3,4-tetrahydro-5H-pyrido[4,3-b]indole-5-carboxamide]: the figures for the minimal effective concentration in the assay with D. immitis microfilariae and with Haemonchus contortus L3 were 33 µM and greater than 100 µM, respectively.
Consider `O=C(NCc1cnc(Cl)s1)n1c2c(c3ccc(OC(F)(F)F)cc31)CN(C/C=C/c1ccc(Cl)cc1)CC2` [Example 382, (E)-2-(3-(4-chlorophenyl)allyl)-N-((2-chlorothiazol-5-yl)methyl)-7-(trifluoromethoxy)-1,2,3,4-tetrahydro-5H-pyrido[4,3-b]indole-5-carboxamide], for which the figures for the minimal effective concentration with D. immitis microfilariae and with Haemonchus contortus L3 were 10 µM and 3.3 µM, respectively.
For the molecule `O=C(NCc1cnc(Cl)s1)n1c2c(c3c(OC(F)(F)F)cccc31)CN(C/C=C/c1ccc(Cl)cc1)CC2` [Example 383, (E)-2-(3-(4-chlorophenyl)allyl)-N-((2-chlorothiazol-5-yl)methyl)-9-(trifluoromethoxy)-1,2,3,4-tetrahydro-5H-pyrido[4,3-b]indole-5-carboxamide], the results for the minimal effective concentration in the assay on D. immitis microfilariae and with Haemonchus contortus L3 were 5.7 µM and greater than 100 µM, respectively.
For the molecule `O=C(NCc1ccnc(Cl)c1)n1c2c(c3cc(OC(F)(F)F)ccc31)CN(C/C=C/c1ccc(Cl)c(F)c1)CC2` [Example 384, (E)-2-(3-(4-chloro-3-fluorophenyl)allyl)-N-((2-chloropyridin-4-yl)methyl)-8-(trifluoromethoxy)-1,2,3,4-tetrahydro-5H-pyrido[4,3-b]indole-5-carboxamide], the minimal effective concentration was found to be 18.2 µM in the assay with D. immitis microfilariae and 1 µM with Haemonchus contortus L3.
